Test results reported in patent US20240366728A1, “Treatment of Diabetes Mellitus” (Carmot Therapeutics Inc., priority 2023, published 2024).
pEC50: −log10 of the molar value.

Columns and labels:
[1] = molecular target: T1, mouse GLP-1R (Mus musculus, UniProt O35659); assay: cAMP accumulation (HitHunter cAMP assay), mouse GLP-1R U2OS cells
T1 sequence (O35659 22-463): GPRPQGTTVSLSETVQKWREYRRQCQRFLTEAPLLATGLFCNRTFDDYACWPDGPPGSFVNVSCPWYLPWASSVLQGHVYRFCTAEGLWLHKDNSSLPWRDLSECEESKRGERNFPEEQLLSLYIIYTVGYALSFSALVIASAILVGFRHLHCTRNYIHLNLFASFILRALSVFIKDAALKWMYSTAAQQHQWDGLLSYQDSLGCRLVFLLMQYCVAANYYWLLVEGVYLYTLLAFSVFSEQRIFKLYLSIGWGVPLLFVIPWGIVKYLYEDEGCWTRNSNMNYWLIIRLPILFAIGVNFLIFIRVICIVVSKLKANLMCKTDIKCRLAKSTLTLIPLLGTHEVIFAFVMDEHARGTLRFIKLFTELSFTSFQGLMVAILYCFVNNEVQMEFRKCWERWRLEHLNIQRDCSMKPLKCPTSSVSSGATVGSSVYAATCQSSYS

[2] = molecular target: T1, mouse GLP-1R; assay: β-arrestin-2 recruitment (NanoBiT), mouse GLP-1R; type: cell-based
Method: (§1) To measure GLP-1R and GIPR-mediated β-arrestin recruitment, we utilized Promega's NanoBiT® technology or NanoLuc® Binary Technology. The NanoLuc luciferase is split into two subunits, called LgBiT and SmBIT, which are expressed in HEK293 cells as fusion proteins at the C-terminus of GLP-IR or GIPR and the N-terminus of β-arrestin-2. […] The next day, the media was removed and replaced with […] 1:100 dilution of Nano-Glo® Live Cell Substrate in Opti-MEM™ and equilibrated to room temperature for ten minutes. Background luminescence was measured before 10 nL compound was added using an ECHO Acoustic Liquid Handler.
(§2) To measure GLP-1R and GIPR-mediated β-arrestin recruitment, Promega's NanoBiT® technology or NanoLuc® Binary Technology were utilized. Both allow for the detection and quantification of protein: protein interactions in live cells (Samms et al., Trends Endocrinol Metab 31:410-21). The NanoLuc luciferase is split into two subunits, called LgBiT and SmBIT, which are expressed in HEK293 cells as fusion proteins at the C-terminus of GLP-1R or GIPR and the N-terminus of β-arrestin-2, respectively. […] The next day, media was removed and replaced with 10 μL 1:100 dilution of Nano-Glo® Live Cell Substrate in Optimem and equilibrated to room temperature for ten minutes. Background luminescence was measured before 10 nL compound was added using an ECHO Acoustic Liquid Handler. Luminescence was measured at 1.5-minute intervals for 30 minutes.

[3] = molecular target: T2, human GIPR (Homo sapiens, UniProt P48546); assay: receptor internalization (Nano-Glo HiBiT), human GIPR; type: cell-based
T2 sequence (P48546 22-466): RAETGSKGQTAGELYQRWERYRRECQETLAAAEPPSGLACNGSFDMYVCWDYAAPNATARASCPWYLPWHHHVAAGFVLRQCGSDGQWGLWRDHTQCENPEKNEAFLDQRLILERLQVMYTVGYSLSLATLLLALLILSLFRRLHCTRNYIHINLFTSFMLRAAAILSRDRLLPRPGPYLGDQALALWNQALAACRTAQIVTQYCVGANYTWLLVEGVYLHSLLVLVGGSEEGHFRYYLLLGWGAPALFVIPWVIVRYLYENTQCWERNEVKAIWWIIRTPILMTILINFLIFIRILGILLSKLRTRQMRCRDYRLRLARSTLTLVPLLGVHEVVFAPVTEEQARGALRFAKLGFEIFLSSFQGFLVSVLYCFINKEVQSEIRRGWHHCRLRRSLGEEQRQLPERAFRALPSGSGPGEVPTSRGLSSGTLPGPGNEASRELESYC
Method: (§3) GLP-1R and GIPR internalization were measured using Promega's Nano-Glo® HiBit extracellular detection system (Promega Corporation; Madison, WI). Hek293 cells were transiently transfected with HiBiT-tagged hGLP-1R or hGIPR plasmids (Promega Corporation; Madison, WI). Cells were lifted using the TrypLE express enzyme (ThermoFisher Scientific) and plated at 80,000-100,000 cells per well in 96 well plates. Cells were then treated with Nano-Glo HibiT extracellular buffer containing LgBiT protein (1:100), and the Nano-Glo HiBiT extracellular substrate (1:50).
(§4) GLP-1R and GIPR internalization was measured using Promega's Nano-Glo® HiBit extracellular detection system (Promega Corporation; Madison, WI). HEK293 cells were transiently transfected with low quantities of HiBiT-tagged hGLP-1R or hGIPR plasmids (Promega Corporation; Madison, WI). The next day, cells were lifted using TrypLE express enzyme (ThermoFisher Scientific) and plated at 80,000-100,000 cells per well in 96 well plates.

[4] = molecular target: T3, mouse GIPR (Mus musculus, UniProt Q0P543); assay: cAMP accumulation (HitHunter cAMP assay), mouse GIPR CHO-K1 cells
T3 sequence (Q0P543 19-460): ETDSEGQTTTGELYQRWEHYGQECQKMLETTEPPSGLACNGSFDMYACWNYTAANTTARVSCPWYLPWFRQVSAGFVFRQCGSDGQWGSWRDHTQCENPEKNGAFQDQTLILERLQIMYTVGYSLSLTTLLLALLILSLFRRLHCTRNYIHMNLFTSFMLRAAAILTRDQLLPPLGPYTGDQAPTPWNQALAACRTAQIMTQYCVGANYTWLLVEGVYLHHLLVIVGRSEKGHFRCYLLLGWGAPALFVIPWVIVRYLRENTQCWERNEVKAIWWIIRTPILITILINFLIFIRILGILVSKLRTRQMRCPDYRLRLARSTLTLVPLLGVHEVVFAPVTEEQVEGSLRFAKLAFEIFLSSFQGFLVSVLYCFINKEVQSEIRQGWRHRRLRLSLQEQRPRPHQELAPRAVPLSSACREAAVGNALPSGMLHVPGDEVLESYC

[5] = molecular target: T3, mouse GIPR; assay: β-arrestin-2 recruitment (NanoBiT), mouse GIPR; type: cell-based
Method: as §1, §2

[6] = molecular target: human GLP-1R (Homo sapiens, UniProt P43220); assay: receptor internalization (Nano-Glo HiBiT), human GLP-1R; type: cell-based; set-up: host or cells: HEK293
Chain of human GLP-1R (P43220 24-463): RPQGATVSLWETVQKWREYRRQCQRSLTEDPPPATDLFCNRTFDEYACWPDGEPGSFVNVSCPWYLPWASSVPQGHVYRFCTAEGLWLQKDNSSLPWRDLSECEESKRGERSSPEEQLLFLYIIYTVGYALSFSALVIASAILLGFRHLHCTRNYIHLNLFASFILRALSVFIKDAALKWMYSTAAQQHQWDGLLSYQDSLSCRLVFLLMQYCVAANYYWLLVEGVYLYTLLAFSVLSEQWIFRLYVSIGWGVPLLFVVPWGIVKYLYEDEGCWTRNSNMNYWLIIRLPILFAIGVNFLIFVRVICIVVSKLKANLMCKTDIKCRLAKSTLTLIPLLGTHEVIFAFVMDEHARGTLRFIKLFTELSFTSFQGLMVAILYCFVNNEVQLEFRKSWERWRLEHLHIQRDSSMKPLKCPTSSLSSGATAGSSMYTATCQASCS
Method: as §3, §4

SMILES	agonist type for cAMP accumulation at mouse GLP-1R (in words) [1]	times less potent than Liraglutide ([1]; cAMP, mouse GLP-1R)	times less potent than native ligand GLP-1 ([1]; cAMP, mouse GLP-1R)	recruitment of β-arrestin-2 to mouse GLP-1R [2]	native ligand mediated recruitment of β-arrestin-2 at GLP-1R (in words) ([2]; antagonist mode vs GLP-1)	human GIPR surface expression (in words) [3]	agonist type for cAMP accumulation at mouse GIPR (in words) [4]	times lower potency than GIP ([4]; cAMP, mouse GIPR)	native ligand mediated recruitment of β-arrestin-2 at GIPR (in words) ([5]; antagonist mode vs GIP)	recruitment of β-arrestin-2 to mouse GIPR ([5]; vs GIP)	GLP-1R expression after two hours of exposure (in words) [6]	Emax ([1]; U2OS, read-out: mGLP-1R cAMP (-alb) % Emax)	pEC50 ([2]; Table 17, read-out: mGLP-1R β-arrestin-2 EC50)	Emax ([2]; read-out: mGLP-1R β-arrestin-2 % Emax, Table 17)	Emax ([3]; Table 17, read-out: hGIPR Internalization % Emax)	Emax ([4]; CHO-K1, read-out: mGIPR cAMP (-alb) % Emax)	Emax ([5]; read-out: mGIPR β-arrestin-2 % Emax, Table 17)	Emax ([6]; Table 17, read-out: hGLP-1R Internalization % Emax)
CCCCCCCCCCCCCCCC(=O)N[C@@H](CCC(=O)NCCCC[C@H](NC(=O)[C@H](CO)NC(=O)[C@@H]1CCCN1C(=O)[C@@H]1CCCN1C(=O)[C@@H]1CCCN1C(=O)[C@H](C)NC(=O)CNC(=O)[C@H](CO)NC(=O)[C@H](CO)NC(=O)[C@@H]1CCCN1C(=O)CNC(=O)CNC(=O)[C@H](C)NC(=O)[C@H](CC(C)C)NC(=O)[C@H](CC(C)C)NC(=O)[C@H](Cc1c[nH]c2ccccc12)NC(=O)[C@H](CC(N)=O)NC(=O)[C@@H](NC(=O)[C@H](Cc1ccccc1)NC(=O)[C@H](CCC(=O)O)NC(=O)C(C)(C)NC(=O)[C@H](C)NC(=O)[C@H](C)NC(=O)[C@H](CCC(N)=O)NC(=O)[C@H](CCCCN)NC(=O)[C@H](CC(=O)O)NC(=O)[C@H](CC(C)C)NC(=O)[C@H](Cc1ccc(O)cc1)NC(=O)[C@@H](NC(=O)[C@H](CO)NC(=O)[C@H](Cc1ccc(O)cc1)NC(=O)[C@H](CC(=O)O)NC(=O)[C@H](CO)NC(=O)[C@@H](NC(=O)[C@H](Cc1ccccc1)NC(=O)[C@@H](NC(=O)CNC(=O)[C@H](CCC(=O)O)NC(=O)CSCC(=O)NCCN1C(=O)CSC1=O)[C@@H](C)O)[C@@H](C)O)[C@@H](C)CC)C(C)C)C(N)=O)C(=O)O [CT-859]	full agonist	12 times	113 times	< 5%	inhibited	stimulating greater surface expression than vehicle	partial agonist	48 times	inhibited	< 5%	higher versus vehicle-treated cells	–	–	–	–	–	–	–
CCCCCCCCCCCCCCCC(=O)N[C@@H](CCC(=O)NCCCC[C@H](NC(=O)[C@H](CO)NC(=O)[C@@H]1CCCN1C(=O)[C@@H]1CCCN1C(=O)[C@@H]1CCCN1C(=O)[C@H](C)NC(=O)CNC(=O)[C@H](CO)NC(=O)[C@H](CO)NC(=O)[C@@H]1CCCN1C(=O)CNC(=O)CNC(=O)[C@H](C)NC(=O)[C@H](CC(C)C)NC(=O)[C@H](CC(C)C)NC(=O)[C@H](Cc1c[nH]c2ccccc12)NC(=O)[C@H](CC(N)=O)NC(=O)[C@@H](NC(=O)[C@H](Cc1ccccc1)NC(=O)[C@H](CCC(=O)O)NC(=O)C(C)(C)NC(=O)[C@H](C)NC(=O)[C@H](C)NC(=O)[C@H](CCC(N)=O)NC(=O)[C@H](CCCCN)NC(=O)[C@H](CC(=O)O)NC(=O)[C@H](CC(C)C)NC(=O)[C@H](Cc1ccc(O)cc1)NC(=O)[C@@H](NC(=O)[C@H](CO)NC(=O)[C@H](Cc1ccc(O)cc1)NC(=O)[C@H](CC(=O)O)NC(=O)[C@H](CO)NC(=O)[C@@H](NC(=O)[C@H](Cc1ccccc1)NC(=O)[C@@H](NC(=O)CNC(=O)[C@H](CCC(=O)O)NC(=O)CSCC(=O)NCCN1CCCCC1=O)[C@@H](C)O)[C@@H](C)O)[C@@H](C)CC)C(C)C)C(N)=O)C(=O)O [CT-868]	–	–	–	–	–	–	–	–	–	–	–	95%	7.68	4.69%	-11%	36%	-1.92%	-13%
